In patent US10604514B2, “6-(5-membered heteroaryl)isoquinolin-3-yl carboxamides and preparation and use thereof” (Samumed, LLC, priority 2017, dated 2020):
Where two headings read alike, the source gives them in different places.

Assays:
[1] = system: Wnt activity (Sp5-Luc reporter in SW480 colon carcinoma cells); assay: Wnt activity screening assay (Sp5-Luc reporter gene assay); type: cell-based, human; conditions: Homo sapiens; for EC50: Sp5-Luc reporter, SW480 cells, 36 to 48 hours; for inhibition at 10 µM: SW480, read-out: percent inhibition at 10 μM
How it was run: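 Compounds at 10 points (1:3 steps, top 10 μM, 0.1% DMSO final) were incubated 36 to 48 h at 37° C with stable Sp5-Luc SW480 reporter cells in 1% FBS medium. Luciferase luminescence was then read and expressed relative to DMSO-only cells. Four-parameter variable-slope fitting yielded EC50 values.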

[2] = target: GSK3β kinase (Homo sapiens (Human), UniProt P49841); assay: GSK3β kinase assay (Ser/Thr 09 peptide Z-lyte, FRET); type: biochemical; conditions: method text calls the value IC50;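 also: Coumarin/fluorescein emission ratio converted to percent phosphorylation against unphosphorylated (0%) and phosphorylated (100%) controls, 1 h compound incubation at room temperature, 11-point threefold dilutions from 10 µM, run in duplicate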
[3] = system: Tau phosphorylation at Ser396 (pSer396), SH-SY5Y cells; assay: Tau phosphorylation at Ser396 (pSer396) in SH-SY5Y cells, ELISA/western blot; type: cell-based, human; conditions: Homo sapiens; SH-SY5Y cells, overnight (16-18 h); read-out: pSer396 Tau EC50;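 also: cell lysates probed for reduced Tau pSer396 via ELISA (colorimetric) or western blot (chemiluminescence), both with one shared pSer396 antibody, EC50 for lowering phosphorylation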
[4] = system: SW480 colon carcinoma cells; assay: Cell viability assay (CellTiter-Glo) in SW480 cells; type: cell-based, human; conditions: Homo sapiens; for EC50: 96 h, cell viability, SW480 cells, four days, CellTiter-Glo; for inhibition at 10 µM: SW480, read-out: percent inhibition at 10 μM;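 as to all read-outs here: SW480 cells stably carrying an Sp5-luciferase TCF/LEF reporter, luminescent ATP signal as viability measure, DMSO-treated cells as control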
[5] = system: LL29 cells (primary human fibroblasts derived from IPF patients), α-smooth muscle actin; assay: Inhibition of fibrotic process: αSMA in TGF-β1-treated primary human fibroblasts from IPF patients (LL29 cells); type: cell-based; conditions: Homo sapiens, Fibroblast; for EC50: 96 h, % αSMA-positive LL29 cells, TGF-β1 20 ng/mL, 4 days
How it was run: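 Read-out is the percentage of αSMA-positive cells by high-content imaging, excluding SYTOX green-positive dead/apoptotic cells, normalized to TGF-β1-only wells on the same plate. LL29 cells were exposed for 4 days at 37 °C to 20 ng/mL TGF-β1 plus 11-point, 2-fold compound dilutions in 0.1% DMSO.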

[6] = system: IL-6; assay: IL-6 inhibition in LPS-stimulated human peripheral blood mononuclear cells (HTRF); type: cell-based; conditions: Homo sapiens, PBMC; for EC50: IL-6, LPS-stimulated huPBMCs, HTRF
How it was run: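 EC50 from a 4-parameter fit of DMSO-normalized HTRF (665/620 nm) IL-6 signal, duplicates. Compound was added to fresh human PBMCs in 1% FBS RPMI for 2 h (top 10 μM, 3-fold, 0.25% DMSO) before 22 h stimulation with LPS at 50 ng/mL, 37 °C.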

[7] = target: DYRK1A kinase (Homo sapiens (Human), UniProt Q13627); assay: DYRK1A kinase assay (Ser/Thr 18 peptide Z-lyte, FRET)
Procedure: Each compound was dissolved in DMSO as a 10 mM stock and used to prepare compound source plates.
This is a non-radioactive assay using fluorescence resonance energy transfer (FRET) between coumarin and fluorescein to detect kinase activity which is represented as a ratio of coumarin emission/fluorescein emission.
The mixture was allowed to incubate with the representative compounds for one hour at room temperature. All reactions were performed in duplicate. Unphosphorylated (“0% Control”) and phosphorylated (“100% control”) forms of Ser/Thr 18 served as control reactions. Additionally, an 11-point dose-response curve of Staurosporine (1 uM top) was run to serve as a positive compound control.
After incubation, Development Reagent A was diluted in Development Buffer then added to the reaction and allowed to further incubate for one hour at room temperature.
The percent phosphorylation was then calculated using the following formula: [1−((Em ratio×F100%)−C100%)/((C0%−C100%)+(Em ratio×(F100%−F0%)))]. Dose-response curves were generated and inhibitory concentration (IC50) values were calculated using non-linear regression curve fit in the Dotmatics' Studies Software (Bishops Stortford, UK).

[8] = DYRK1A kinase, method text calls the value IC50

Chain of GSK3β kinase (P49841 whole entry): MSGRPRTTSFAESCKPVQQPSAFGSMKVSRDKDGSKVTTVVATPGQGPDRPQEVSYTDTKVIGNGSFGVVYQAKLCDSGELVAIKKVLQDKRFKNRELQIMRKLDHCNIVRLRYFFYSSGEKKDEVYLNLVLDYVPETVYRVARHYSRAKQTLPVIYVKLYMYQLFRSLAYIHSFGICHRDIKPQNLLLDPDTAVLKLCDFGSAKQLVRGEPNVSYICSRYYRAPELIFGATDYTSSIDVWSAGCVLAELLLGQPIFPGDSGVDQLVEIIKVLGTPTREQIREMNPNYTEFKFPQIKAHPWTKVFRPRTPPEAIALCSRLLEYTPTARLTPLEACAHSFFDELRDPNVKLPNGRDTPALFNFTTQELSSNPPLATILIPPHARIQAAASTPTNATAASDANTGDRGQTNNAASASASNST

SMILES | EC50 [1] [nM] | EC50 [2] [nM] | EC50 [3] [nM] | EC50 [4] [nM] | EC50 [6] [nM] | EC50 [7] [nM] | EC50 [7, 8] [nM] | EC50 [5] [nM] | inhibition at 10 µM [1] [%] | inhibition at 10 µM [4] [%] | inhibition at 10 µM ([5]; read-out: percent inhibition at 10 μM) [%] | inhibition at 10 µM ([6]; read-out: percent value in parentheses below EC50 >10) [%]
[2H]C([2H])(C(=O)Nc1cc2cc(-c3cnc(C)n3C)ccc2cn1)c1ccc(F)cc1 [Compound 92, N-(6-(1,2-Dimethyl-1H-imidazol-5-yl)isoquinolin-3-yl)-2-(4-fluorophenyl) acetamide-2,2-d2] | 3140 | 66 | 769 | 4080 | 3180 | 10 | – | 2710 | – | – | – | –
[2H]C([2H])(C(=O)Nc1cc2cc(-c3cncn3C)ccc2cn1)c1ccc(F)cc1 [Compound 95, 2-(4-Fluorophenyl)-N-(6-(1-methyl-1H-imidazol-5-yl)isoquinolin-3-yl) acetamide-2,2-d2] | 1070 | 38 | 76 | 766 | 339 | 4 | – | 276 | – | – | – | –
Cn1cc(-c2cc(F)c3cnc(NC(=O)[C@H]4CC[C@@H](N(C)C)CC4)cc3c2)cn1 [Compound 96, cis-4-(Dimethylamino)-N-(8-fluoro-6-(1-methyl-1H-pyrazol-4-yl)isoquinolin-3-yl)cyclohexane-1-carboxamide] | > 10000 | 5420 | > 10000 | > 10000 | > 10000 | – | 846 | > 10000 | 0 | 2.3 | 36 | 3.6
Cn1cc(-c2cc(F)c3cnc(NC(=O)[C@H]4CC[C@@H](N5CCOCC5)CC4)cc3c2)cn1 [Compound 97, cis-N-(8-Fluoro-6-(1-methyl-1H-pyrazol-4-yl)isoquinolin-3-yl)-4-morpholinocyclohexane-1-carboxamide] | 1470 | 20 | 184 | 806 | 365 | – | 14 | 200 | – | – | – | –
Cn1cc(-c2ccc3cnc(NC(=O)[C@H]4CC[C@H](N5CCCC5)CC4)cc3c2)nn1 [Compound 99, trans-N-(6-(1-Methyl-1H-1,2,3-triazol-4-yl)isoquinolin-3-yl)-4-(pyrrolidin-1-yl)cyclohexane-1-carboxamide] | 589 | 8 | 208 | 1080 | 1360 | – | 4 | 72 | – | – | – | –
Cn1cc(-c2ccc3cnc(NC(=O)[C@H]4CC[C@H](N5CCOCC5)CC4)cc3c2)nn1 [Compound 100, trans-N-(6-(1-Methyl-1H-1,2,3-triazol-4-yl)isoquinolin-3-yl)-4-morpholinocyclohexane-1-carboxamide] | 720 | 11 | 113 | 1530 | 2020 | – | 3 | 64 | – | – | – | –
Cc1ncc(-c2cc(F)c3cnc(NC(=O)[C@H]4CC[C@H](C(=O)N5CCN(C)CC5)CC4)cc3c2)o1 [Compound 101, trans-N-(8-fluoro-6-(2-methyloxazol-5-yl)isoquinolin-3-yl)-4-(4-methylpiperazine-1-carbonyl)cyclohexane-1-carboxamide] | > 10000 | 1030 | 5400 | > 10000 | 3590 | – | 22 | 3070 | 6.3 | 18.8 | – | –
CN1CCN(C(=O)[C@H]2CC[C@H](C(=O)Nc3cc4cc(-c5cnn(C)c5)cc(F)c4cn3)CC2)CC1 [Compound 102, trans-N-(8-Fluoro-6-(1-methyl-1H-pyrazol-4-yl)isoquinolin-3-yl)-4-(4-methylpiperazine-1-carbonyl)cyclohexane-1-carboxamide] | 3250 | 434 | 2600 | 3030 | 2920 | – | 5 | 2400 | – | – | – | –
Cn1cc(-c2cc(F)c3cnc(NC(=O)[C@H]4CC[C@H](NCC(F)F)CC4)cc3c2)cn1 [Compound 103, trans-4-((2,2-Difluoroethyl)amino)-N-(8-fluoro-6-(1-methyl-1H-pyrazol-4-yl)isoquinolin-3-yl)cyclohexane-1-carboxamide] | 2970 | 30 | 1300 | 6080 | 1080 | – | 5 | 392 | – | – | – | –

The next compounds have a lower EC50 [1] than those just listed; values first:

EC50 [1] [nM] | EC50 [2] [nM] | EC50 [3] [nM] | EC50 [4] [nM] | EC50 [6] [nM] | EC50 [7] [nM] | EC50 [7, 8] [nM] | SMILES | EC50 [5] [nM] | inhibition at 10 µM [1] [%] | inhibition at 10 µM [4] [%] | inhibition at 10 µM ([5]; read-out: percent inhibition at 10 μM) [%] | inhibition at 10 µM ([6]; read-out: percent value in parentheses below EC50 >10) [%]
233 | 847 | 1400 | 487 | 1220 | 2 | – | [2H]c1c([2H])c(C(=O)Nc2cc3cc(-c4cncn4C)ccc3cn2)c([2H])c([2H])c1C [Compound 85, 4-Methyl-N-(6-(1-methyl-1H-imidazol-5-yl)isoquinolin-3-yl)benzamide-2,3,5,6-d4] | 557 | – | – | – | –
350 | 1740 | 3040 | 515 | 2170 | 2 | – | [2H]c1c([2H])c(C([2H])([2H])[2H])c([2H])c([2H])c1C(=O)Nc1cc2cc(-c3cncn3C)ccc2cn1 [Compound 86, 4-(Methyl-d3)-N-(6-(1-methyl-1H-imidazol-5-yl)isoquinolin-3-yl) benzamide-2,3,5,6-d4] | 556 | – | – | – | –
214 | 1450 | 896 | 489 | 1170 | 3 | – | [2H]C([2H])([2H])Oc1ccc(C(=O)Nc2cc3cc(-c4cncn4C)ccc3cn2)cc1 [Compound 87, 4-(Methoxy-d3)-N-(6-(1-methyl-1H-imidazol-5-yl)isoquinolin-3-yl) benzamide] | 132 | – | – | – | –
179 | 1010 | 16 | 480 | 1200 | 2 | – | [2H]c1c([2H])c(C(=O)Nc2cc3cc(-c4cncn4C)ccc3cn2)c([2H])c([2H])c1OC([2H])([2H])[2H] [Compound 88, 4-(Methoxy-d3)-N-(6-(1-methyl-1H-imidazol-5-yl)isoquinolin-3-yl) benzamide-2,3,5,6-d4] | 311 | – | – | – | –
155 | 533 | 594 | 480 | 1050 | 2 | – | [2H]c1c([2H])c(C(=O)Nc2cc3cc(-c4cncn4C)ccc3cn2)c([2H])c([2H])c1OC [Compound 89, 4-Methoxy-N-(6-(1-methyl-1H-imidazol-5-yl)isoquinolin-3-yl)benzamide-2,3,5,6-d4] | 190 | – | – | – | –
159 | 388 | 171 | 312 | 606 | 4 | – | [2H]c1c([2H])c([2H])c(/C=C/C(=O)Nc2cc3cc(-c4cnc(C)n4C)ccc3cn2)c([2H])c1[2H] [Compound 90, (E)-N-(6-(1,2-Dimethyl-1H-imidazol-5-yl)isoquinolin-3-yl)-3-(phenyl-2,3,4,5,6-d5)acrylamide] | 299 | – | – | – | –
197 | 454 | 68 | 314 | 679 | 5 | – | [2H]/C(C(=O)Nc1cc2cc(-c3cnc(C)n3C)ccc2cn1)=C(/[2H])c1c([2H])c([2H])c([2H])c([2H])c1[2H] [Compound 91, (E)-N-(6-(1,2-Dimethyl-1H-imidazol-5-yl)isoquinolin-3-yl)-3-(phenyl-2,3,4,5,6-d5)acrylamide-2,3-d2] | 289 | – | – | – | –
67 | 238 | 259 | 98 | 280 | 2 | – | [2H]c1c([2H])c([2H])c(/C=C/C(=O)Nc2cc3cc(-c4cncn4C)ccc3cn2)c([2H])c1[2H] [Compound 93, (E)-N-(6-(1-methyl-1H-imidazol-5-yl)isoquinolin-3-yl)-3-(phenyl-2,3,4,5,6-d5)acrylamide] | 145 | – | – | – | –
88 | 276 | 244 | 104 | 319 | 2 | – | [2H]/C(C(=O)Nc1cc2cc(-c3cncn3C)ccc2cn1)=C(/[2H])c1c([2H])c([2H])c([2H])c([2H])c1[2H] [Compound 94, (E)-N-(6-(1-Methyl-1H-imidazol-5-yl)isoquinolin-3-yl)-3-(phenyl-2,3,4,5,6-d5)acrylamide-2,3-d2] | 125 | – | – | – | –
